According to ChEMBL document CHEMBL5678816, “A Next-Generation TRK Kinase Inhibitor Overcomes Acquired Resistance to Prior TRK Kinase Inhibition in Patients with TRK Fusion-Positive Solid Tumors” (Cancer Discov, 2017):
Calls of active or inactive are those of the source. The rule behind the calls is not given here.

How the values were obtained:
[1] = Inhibition of N-terminal 6His-tagged TRKC G696A mutant (506 to 829 residues) (unknown origin) expressed in Escherichia coli incubated for 60 mins by [gamma-33P]-ATP based TopCount NXT liquid scintillation assay; set-up: species or system Homo sapiens
[2] = Inhibition of human extracellular domain deleted TRKA V573M mutant expressed in mouse NIH3T3 cells assessed as reduction in TRKA phosphorylation incubated for 1 hrs by ELISA; format: cell-based; conditions: NIH3T3, 1 h
[3] = Inhibition of human extracellular domain deleted TRKA G667S mutant expressed in mouse NIH3T3 cells assessed as reduction in TRKA phosphorylation incubated for 1 hrs by ELISA; format: cell-based; conditions: NIH3T3, 1 h
[4] = Inhibition of N-terminal 3FLAG-tagged wild type ETV6-TRKC (unknown origin) expressed in NIH3T3 cells assessed as ERK1/2 phosphorylation incubated for 1 hrs by flow cytometric analysis; format: cell-based, Homo sapiens
[5] = Inhibition of N-terminal 3FLAG-tagged ETV6-TRKC G623R mutant (unknown origin) expressed in NIH3T3 cells assessed as ERK1/2 phosphorylation incubated for 1 hrs by flow cytometric analysis; format: cell-based, Homo sapiens
[6] = Inhibition of N-terminal 3FLAG-tagged ETV6-TRKC G696A mutant (unknown origin) expressed in NIH3T3 cells assessed as ERK1/2 phosphorylation incubated for 1 hrs by flow cytometric analysis; format: cell-based, Homo sapiens
NIH3T3 [7] = experiment: In vivo inhibition of […] in nu/nu NCr mouse implanted with mouse NIH3T3 cells harboring extracellular domain deleted […] assessed as reduction in […] phosphorylation at 60 mg/kg, po administered once daily for 3 days and measured after 2 hrs post last dose by ELISA; format: functional, organism-based; conditions: time 3.0 day
NIH3T3 [8] = experiment: In vivo inhibition of […] in nu/nu NCr mouse implanted with mouse NIH3T3 cells harboring extracellular domain deleted […] assessed as reduction in […] phosphorylation at 10 to 100 mg/kg, po administered twice daily for 3 days and measured after 2 hrs post last dose by ELISA; format: functional, organism-based; conditions: dose 10-100 mg/kg, time 3.0 day
KM12 = experiment: Antitumor activity against human KM12 cells harboring TPM3-TRKA fusion protein xenografted in nu/nu NCr mouse assessed as inhibition of tumor growth at 60 mg/kg, po administered once daily for 11 days; format: functional, organism-based; conditions: time 11.0 day
NIH3T3 [9] = experiment: Antitumor activity against mouse NIH3T3 cells harboring extracellular domain deleted TRKA implanted in nu/nu NCr mouse assessed as inhibition of tumor growth at 60 mg/kg, po administered once daily for 10 days; format: functional, organism-based; conditions: time 10.0 day
[10] = Toxicity in nu/nu NCr mouse xenografted with human KM12 cells harboring TPM3-TRKA fusion protein assessed as body weight loss at 60 mg/kg, po administered once daily for 11 days relative to control; format: organism-based; conditions: in vivo, 264 h, time 11 day
[11] = Toxicity in nu/nu NCr mouse implanted with mouse NIH3T3 cells harboring extracellular domain deleted TRKA assessed as body weight loss at 60 mg/kg, po administered once daily for 10 days relative to control; format: organism-based; conditions: in vivo, 240 h, time 10 day
[12] = Toxicity in nu/nu NCr mouse implanted with mouse NIH3T3 cells harboring extracellular domain deleted TRKA G595R mutant assessed as body weight loss at 60 mg/kg, po administered once daily for 12 days relative to control; format: organism-based; conditions: in vivo, 288 h, time 12 day

Molecule `O=C(Nc1cnn2ccc(N3CCC[C@@H]3c3cc(F)ccc3F)nc12)N1CC[C@H](O)C1` [LAROTRECTINIB] has an IC50 [1] of 0.0045 µM, an IC50 [2] of 1.02 µM and an IC50 [3] of 0.07 µM. For the same molecule, the IC50 [4] was 0.0188 µM, the IC50 [5] was greater than 10 µM and the IC50 [6] was 0.172 µM. The inhibition (NIH3T3 [7]) was “Active”, the inhibition (NIH3T3 [8]) was “Active” and the Activity (KM12) was “Active”. The Activity (NIH3T3 [9]) was “Active”, the Activity [10] was less than 5% and the Activity [11] was less than 5%. For the same molecule, the Activity [12] was less than 5%.
